Reference: ChEMBL document CHEMBL3992499, “Synthesis, biological evaluation, QSAR and molecular dynamics simulation studies of potential fibroblast growth factor receptor 1 inhibitors for the treatment of gastric cancer” (Eur J Med Chem, 2017)
Activity calls are given as the source filed them. The rule behind the calls is not given here.

Assays:
MGC-803 = test: Antiproliferative activity against human MGC803 cells after 72 hrs by MTT assay; settings: MGC-803, 72 h
SGC-7901 [1] = test: Antiproliferative activity against human SGC7901 cells after 72 hrs by MTT assay; settings: SGC-7901, 72 h
BGC-823 = test: Antiproliferative activity against human BGC823 cells after 72 hrs by MTT assay; settings: BGC-823, 72 h
SGC-7901 [2] = test: Induction of apoptosis in human SGC7901 cells assessed as chromatin condensation after 12 hrs by Hoechst 33342 staining based fluorescence microscopic method; type: functional, cell-based
SGC-7901 [3] = test: Induction of apoptosis in human SGC7901 cells assessed as nuclear fragmentation up to 20 uM after 12 hrs by Hoechst 33342 staining based fluorescence microscopic method; type: functional, cell-based
SGC-7901 [4] = test: Induction of apoptosis in human SGC7901 cells assessed as downregulation of Cyclin D1 expression by western blot method; type: functional, cell-based
SGC-7901 [5] = test: Cell cycle arrest in human SGC7901 cells assessed as reduction in G2/M phase up to 20 uM after 8 hrs by propidium iodide staining based flow cytometry; type: functional
SGC-7901 [6] = test: Induction of apoptosis in human SGC7901 cells assessed as increase in cleaved PARP expression level after 48 hrs by Western blot method; type: functional, cell-based
SGC-7901 [7] = test: Induction of apoptosis in human SGC7901 cells assessed as increase in cleaved PARP expression level at 10 uM after 48 hrs by Western blot method; type: functional, cell-based
SGC-7901 [8] = test: Induction of apoptosis in human SGC7901 cells assessed as decrease in Bcl2 expression level after 48 hrs by Western blot method; type: functional, cell-based
SGC-7901 [9] = test: Cell cycle arrest in human SGC7901 cells assessed as accumulation at G0/G1 phase after 8 hrs by propidium iodide staining based flow cytometry; type: functional
SGC-7901 [10] = test: Induction of apoptosis in human SGC7901 cells assessed as decrease in Bcl2 expression level at 10 uM after 48 hrs by Western blot method; type: functional, cell-based

SMILES	IC50 (MGC-803) [µM]	IC50 (SGC-7901 [1]) [µM]	IC50 (BGC-823) [µM]	Activity (SGC-7901 [2])	Activity (SGC-7901 [3])	Activity (SGC-7901 [4])	Activity (SGC-7901 [5])	Activity (SGC-7901 [6])	Activity (SGC-7901 [7])	Activity (SGC-7901 [8])	Activity (SGC-7901 [9])	Activity (SGC-7901 [10])
CCC(=O)Oc1ccc(/C=C2\CC/C(=C\c3ccc(OC(=O)CC)c(OC)c3)C2=O)cc1OC	8.3	4.7	11.9									
CCN(CC)c1ccc(/C=C/C(=O)/C=C/c2ccc(O)c(OC)c2)cc1	2.1	8.2	2.5	Dose-dependent effect	Active	Dose-dependent effect	Active	Dose-dependent effect	Active	Dose-dependent effect	Dose-dependent effect	Active
COc1cc(/C=C2\CCC/C(=C\c3ccc(N4CCCCC4)cc3)C2=O)ccc1OC(=O)C(C)C	11.8	18.8	31.5									
COc1cc(/C=C2\CC/C(=C\c3ccc(OC(=O)C(C)C)c(OC)c3)C2=O)ccc1OC(=O)C(C)C	5	5.7	10.1									
COc1cc(/C=C/C(=O)/C=C/c2ccc(N3CCCC3)cc2)ccc1O	12.3	8.2	21.2									

The next lines start with results.

IC50 (MGC-803) [µM]	IC50 (SGC-7901 [1]) [µM]	IC50 (BGC-823) [µM]	SMILES	Activity (SGC-7901 [2])	Activity (SGC-7901 [3])	Activity (SGC-7901 [4])	Activity (SGC-7901 [5])	Activity (SGC-7901 [6])	Activity (SGC-7901 [7])	Activity (SGC-7901 [8])	Activity (SGC-7901 [9])	Activity (SGC-7901 [10])
45.8	> 60	> 60	CC(Cc1ccc(O)c(O)c1)C(C)Cc1ccc(O)c(O)c1 (configuration not stated) [NORDIHYDROGUAIARETIC ACID]									
6.2	2.8	7.9	COc1cc(CCc2cc(NC(=O)c3ccc(N4C[C@@H](C)N[C@@H](C)C4)cc3)n[nH]2)cc(OC)c1 [FEXAGRATINIB]									
2.6	9.6	2	COc1cc(/C=C2\CC/C(=C\c3c[nH]c4ccc(Br)cc34)C2=O)ccc1O	Dose-dependent effect	Active	Dose-dependent effect	Active	Dose-dependent effect	Active	Dose-dependent effect	Dose-dependent effect	Active
